Test results from patent publication US11931343B2 (ARCUS BIOSCIENCES, INC., priority 2018, dated 2024).

These compounds were tested against T1, human CD73 (Homo sapiens, UniProt P21589) (assay: Inhibition of Ecto-5′-nucleotidase (CD73) activity in CHO-CD73 cells, phosphate release from AMP). Conditions: CHO-K1 cells stably transfected with human CD73; 25 μM AMP; 50 minutes, 37° C.; read-out: Potency: CD73 IC50.
T1 sequence (P21589 27-549): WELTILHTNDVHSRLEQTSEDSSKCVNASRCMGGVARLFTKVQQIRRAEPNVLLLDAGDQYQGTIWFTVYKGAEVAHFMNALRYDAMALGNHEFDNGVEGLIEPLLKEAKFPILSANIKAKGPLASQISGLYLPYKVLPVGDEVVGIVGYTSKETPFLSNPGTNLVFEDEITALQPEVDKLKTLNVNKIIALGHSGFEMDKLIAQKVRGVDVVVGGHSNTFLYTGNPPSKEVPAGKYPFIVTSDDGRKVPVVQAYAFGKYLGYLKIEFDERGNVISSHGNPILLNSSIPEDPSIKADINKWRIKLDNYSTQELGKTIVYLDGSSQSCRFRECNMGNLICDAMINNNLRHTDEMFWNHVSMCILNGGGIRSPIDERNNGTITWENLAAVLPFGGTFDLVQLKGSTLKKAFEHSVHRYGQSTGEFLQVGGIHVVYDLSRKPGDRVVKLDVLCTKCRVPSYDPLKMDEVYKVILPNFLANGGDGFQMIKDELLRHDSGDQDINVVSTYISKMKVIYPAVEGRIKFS
Type: cell-based

Compared with N#Cc1cnc(Cn2nccc2-c2cc(F)c3nnn(-c4ccc5[nH]c(=O)[nH]c5c4)c3c2)c2ccccc12 [Example 318], Cc1cnc(-c2cc(C#N)ccc2Cn2nccc2-c2cc(F)c3nnn(-c4ccc5[nH]c(=O)[nH]c5c4)c3c2)o1 [Example 321] is lower in IC50: over 1 µM for the first, 0.1 to 1 µM for the second.

Compared with N#CCc1ccc(Cn2nccc2-c2cc(F)c3nnn(-c4ccc5[nH]c(=O)[nH]c5c4)c3c2)cc1 [Example 319], N#Cc1ccc(Cn2ncc(Cl)c2-c2cc(F)c3nnn(-c4ccc5[nH]c(=O)[nH]c5c4)c3c2)cc1 [Example 326] is lower in IC50: over 1 µM for the first, 0.1 to 1 µM for the second. The second is the more potent here.

Cc1coc(-c2cc(C#N)ccc2Cn2nccc2-c2cc(F)c3nnn(-c4ccc5[nH]c(=O)[nH]c5c4)c3c2)n1 [Example 320] and Cc1cnn(Cc2ccc(C#N)cc2)c1-c1cc(F)c2nnn(-c3ccc4[nH]c(=O)[nH]c4c3)c2c1 [Example 334] fall in the same range of IC50: 0.1 to 1 µM for the first, 0.1 to 1 µM for the second.

First: N#Cc1ccc(Cn2nc(C(=O)O)cc2-c2cc(F)c3nnn(-c4ccc5[nH]c(=O)[nH]c5c4)c3c2)cc1 [Example 322]
Second: N#Cc1ccc(Cn2c(-c3cc(F)c4nnn(-c5ccc6[nH]c(=O)[nH]c6c5)c4c3)c[nH]c2=O)cc1 [Example 333]
The IC50 of the first is higher: over 1 µM for the first, 0.1 to 1 µM for the second. The second is the more potent here.

N#Cc1ccc(Cn2ncc(Cl)c2-c2ccc3nnn(-c4ccc5[nH]c(=O)[nH]c5c4)c3c2)cc1 [Example 323] and N#Cc1ccc(Cn2ncc(F)c2-c2cc(F)c3nnn(-c4ccc5[nH]c(=O)[nH]c5c4)c3c2)cc1 [Example 331] fall in the same range of IC50: 0.1 to 1 µM for the first, 0.1 to 1 µM for the second.

N#Cc1ccc(Cn2nccc2-c2cnc3c(c2)c(-c2ccc4[nH]c(=O)[nH]c4c2)nn3CCO)cc1 [Example 324] and COC(=O)Cn1nc(-c2ccc3[nH]c(=O)[nH]c3c2)c2cc(-c3ccnn3Cc3ccc(C#N)cc3)cnc21 [Example 325] cannot be ordered by IC50: over 1 µM for the first, over 1 µM for the second.

Cn1nc(-c2ccc3[nH]c(=O)[nH]c3c2)c2cc(-c3ccnn3Cc3ccc(C#N)cc3)ncc21 [Example 327] and N#Cc1ccc(Cn2nccc2-c2cnc3c(F)nn(-c4ccc5[nH]c(=O)[nH]c5c4)c3c2)cc1 [Example 329] fall in the same range of IC50: 0.1 to 1 µM for the first, 0.1 to 1 µM for the second.

First: N#Cc1ccc(Cn2cccc2-c2cc(F)c3nnn(-c4ccc5[nH]c(=O)[nH]c5c4)c3c2)cc1 [Example 328]
Second: N#Cc1ccc(Cn2ncc(C#N)c2-c2cc(F)c3nnn(-c4ccc5[nH]c(=O)[nH]c5c4)c3c2)cc1 [Example 330]
The IC50 of the first is lower: 0.1 to 1 µM for the first, over 1 µM for the second.

First: Cn1c(=O)n(-c2ccc3cn[nH]c3c2)c2cc(-c3ccnn3Cc3ccc(C#N)cc3)cnc21 [Example 332]
Second: Cn1nc(-c2ccc3cn[nH]c3c2)c2cc(-c3ccnn3Cc3ccc(C#N)cc3)cnc21 [Example 341]
The IC50 of the first is higher: over 1 µM for the first, 0.1 to 1 µM for the second. The second is the more potent here.

Compared with N#Cc1ccc(Cn2nccc2-c2ccc3cnc(-c4ccc5[nH]c(=O)[nH]c5c4)n3c2)c(F)c1 [Example 335], N#Cc1ccc(Cn2nccc2-c2cnc3c(N)nn(-c4cc5[nH]c(=O)[nH]c5cc4F)c3c2)c(F)c1 [Example 339] is lower in IC50: over 1 µM for the first, under 0.1 µM for the second.

First: N#Cc1ccc(Cn2nccc2-c2cnc3c(CO)nn(-c4ccc5[nH]c(=O)[nH]c5c4)c3c2)cc1 [Example 336]
Second: N#Cc1ccc(Cn2nccc2-c2cc3c(c(N)nn3-c3ccc4[nH]c(=O)[nH]c4c3)[n+]([O-])c2)cc1 [Example 365]
The IC50 of the first is lower: 0.1 to 1 µM for the first, over 1 µM for the second. The first is the more potent here.

Compared with N#Cc1ccc(Cn2nccc2-c2cnc3c(N)nn(-c4cc(F)c5[nH]c(=O)[nH]c5c4)c3c2)c(F)c1 [Example 337], N#Cc1ccc(Cn2nccc2-c2cnc3c(N)nn(-c4cc5[nH]ncc5cc4F)c3c2)cc1 [Example 364] is lower in IC50: 0.1 to 1 µM for the first, under 0.1 µM for the second. The second is the more potent here.

N#Cc1ccc(Cn2nccc2-c2cc3c(cnn3-c3ccc4cn[nH]c4c3)c(=O)[nH]2)c(F)c1 [Example 338] and Cc1nn(-c2ccc3cn[nH]c3c2)c2cc(-c3ccnn3Cc3ccc(C#N)cc3)[nH]c(=O)c12 [Example 358] fall in the same range of IC50: 0.1 to 1 µM for the first, 0.1 to 1 µM for the second.

N#Cc1ccc(Cn2nccc2-c2cnc3c(c2)c(-c2ccc4cn[nH]c4c2)nn3CCc2ccccc2)cc1 [Example 342] and Cn1nc(-c2ccc3cn[nH]c3c2)c2cc(-c3ccnn3Cc3ccc(C#N)cc3)c[n+]([O-])c21 [Example 361] cannot be ordered by IC50: over 1 µM for the first, over 1 µM for the second.

N#Cc1ccc(Cn2nccc2-c2cc(F)c3nnn(-c4ccc5[nH][nH]c(=O)c5c4)c3c2)cc1 [Example 343] and N#Cc1ccc(Cn2nccc2-c2cc(F)c3nnn(-c4ccc5c(=O)[nH][nH]c5c4)c3c2)cc1 [Example 350] fall in the same range of IC50: 0.1 to 1 µM for the first, 0.1 to 1 µM for the second.

First: N#Cc1ccc(Cn2nccc2-c2cc(F)c3nnn(-c4ccc5c(CO)n[nH]c5c4)c3c2)cc1 [Example 344]
Second: N#Cc1ccc(Cn2nccc2-c2cc(F)c3nnn(-c4ccc5c(CCO)n[nH]c5c4)c3c2)cc1 [Example 349]
The IC50 of the first is lower: 0.1 to 1 µM for the first, over 1 µM for the second. The first is the more potent here.

First: N#Cc1ccc(Cn2nccc2-c2cc(F)c3nnn(-c4ccc5c(N)n[nH]c5c4)c3c2)cc1 [Example 345]
Second: COCc1n[nH]c2cc(-n3nnc4c(F)cc(-c5ccnn5Cc5ccc(C#N)cc5)cc43)ccc12 [Example 353]
The IC50 of the first is lower: 0.1 to 1 µM for the first, over 1 µM for the second. The first is the more potent here.

Compared with N#Cc1ccc(Cn2nccc2-c2cc3c(cn2)nnn3-c2ccc3c(=O)[nH][nH]c3c2)cc1 [Example 346], N#Cc1ccc(Cn2nccc2-c2cc3c(nnn3-c3ccc4cn[nH]c4c3)c(=O)[nH]2)cc1 [Example 352] is lower in IC50: 0.1 to 1 µM for the first, under 0.1 µM for the second. The second is the more potent here.

N#Cc1ccc(Cn2nccc2-c2cc(F)c3nnn(-c4ccc5c(CNS(N)(=O)=O)n[nH]c5c4)c3c2)cc1 [Example 347] and N#Cc1ccc(Cn2nccc2-c2cc(F)c3nnn(-c4ccc5c(CNC(=O)CN)n[nH]c5c4)c3c2)cc1 [Example 351] cannot be ordered by IC50: over 1 µM for the first, over 1 µM for the second.

N#Cc1ccc(Cn2nccc2-c2cc(F)c3nnn(-c4ccc5c(CC(=O)O)n[nH]c5c4)c3c2)cc1 [Example 348] and N#Cc1ccc(Cn2nccc2-c2cc(F)c3nnn(-c4ccc5c(COCCO)n[nH]c5c4)c3c2)cc1 [Example 355] cannot be ordered by IC50: over 1 µM for the first, over 1 µM for the second.

Compared with N#Cc1ccc(Cn2nccc2-c2cc(F)c3nnn(-c4ccc(O)cc4)c3c2)cc1 [Example 354], N#Cc1ccc(Cn2nccc2-c2cc(F)c3nnn(-c4ccc5cn[nH]c5n4)c3c2)cc1 [Example 367] is lower in IC50: over 1 µM for the first, under 0.1 µM for the second. The second is the more potent here.

Cn1c(-c2ccnn2Cc2ccc(C#N)cc2)cc2c(nnn2-c2ccc3cn[nH]c3c2)c1=O [Example 356] and N#Cc1ccc(Cn2nccc2-c2cc3c(nnn3-c3ccc4cn[nH]c4c3)[nH]c2=O)cc1 [Example 372] fall in the same range of IC50: 0.1 to 1 µM for the first, 0.1 to 1 µM for the second.

COc1nc(-c2ccnn2Cc2ccc(C#N)cc2)cc2c1nnn2-c1ccc2cn[nH]c2c1 [Example 357] and Cc1cc2nnn(-c3ccc4cn[nH]c4c3)c2cc1-c1ccnn1Cc1ccc(C#N)cc1 [Example 384] fall in the same range of IC50: 0.1 to 1 µM for the first, 0.1 to 1 µM for the second.

N#Cc1ccc(Cn2nccc2-c2cc3c(nnn3-c3ccc4[nH]c(=O)[nH]c4c3)c(=O)[nH]2)cc1 [Example 359] and O=c1[nH]c2ccc(-n3nnc4c(Cl)cc(-c5ccnn5Cc5ccc(Cl)c[n+]5[O-])cc43)cc2[nH]1 [Example 369] fall in the same range of IC50: 0.1 to 1 µM for the first, 0.1 to 1 µM for the second.

Cc1nn(-c2ccc3cn[nH]c3c2)c2cc(-c3ccnn3Cc3ccc(C#N)cc3)c[n+]([O-])c12 [Example 360] and N#Cc1ccc(Cn2nccc2-c2cc3c(c(N)nn3-c3ccc4cn[nH]c4c3)[n+]([O-])c2)cc1 [Example 362] fall in the same range of IC50: 0.1 to 1 µM for the first, 0.1 to 1 µM for the second.

First: N#Cc1ccc(Cn2nccc2-c2cc3c(c[n+]2[O-])nnn3-c2ccc3cn[nH]c3c2)cc1 [Example 363]
Second: N#Cc1ccc(Cn2nccc2-c2cc3c(cc2F)nnn3-c2ccc3cn[nH]c3c2)cc1 [Example 378]
The IC50 of the first is higher: 0.1 to 1 µM for the first, under 0.1 µM for the second.

[O-][n+]1cc(Cl)ccc1Cn1nccc1-c1cc(Cl)c2nnn(-c3ccc4cn[nH]c4c3)c2c1 [Example 366] and Cc1ccc(Cn2nccc2-c2cc(Cl)c3nnn(-c4ccc5cn[nH]c5c4)c3c2)[n+]([O-])c1 [Example 381] cannot be ordered by IC50: under 0.1 µM for the first, under 0.1 µM for the second.

Compared with CCc1nn(-c2ccc3cn[nH]c3c2)c2cc(-c3ccnn3Cc3ccc(C#N)cc3)cnc12 [Example 370], N#Cc1ccc(Cn2nccc2-c2cnc3c(Cl)nn(-c4ccc5cn[nH]c5c4)c3c2)cc1 [Example 371] is lower in IC50: over 1 µM for the first, 0.1 to 1 µM for the second. The second is the more potent here.

First: Fc1cc(-c2ccnn2C2CCCOC2)cc2c1nnn2-c1ccc2cn[nH]c2c1 (stereo not drawn) [Example 373]
Second: CC(c1ccc(Cl)cn1)n1nccc1-c1cc(F)c2nnn(-c3ccc4cn[nH]c4c3)c2c1 (stereo not drawn) [Example 377]
The IC50 of the first is higher: over 1 µM for the first, 0.1 to 1 µM for the second. The second is the more potent here.

CC(c1ccc(Cl)cn1)n1nccc1-c1cc(Cl)c2nnn(-c3ccc4cn[nH]c4c3)c2c1 (stereo not drawn) [Example 374] and Cc1ccc(C(C)n2nccc2-c2cc(Cl)c3nnn(-c4ccc5cn[nH]c5c4)c3c2)nc1 (stereo not drawn) [Example 380] fall in the same range of IC50: 0.1 to 1 µM for the first, 0.1 to 1 µM for the second.

OC(Cn1nccc1-c1cc(F)c2nnn(-c3ccc4cn[nH]c4c3)c2c1)c1ccccc1 (stereo not drawn) [Example 375] and CC(Cn1nccc1-c1cc(F)c2nnn(-c3ccc4cn[nH]c4c3)c2c1)c1ccccc1 (stereo not drawn) [Example 385] cannot be ordered by IC50: over 1 µM for the first, over 1 µM for the second.

First: N#Cc1ccc(Cn2nccc2-c2cnc3c(C(F)(F)F)nn(-c4ccc5cn[nH]c5c4)c3c2)cc1 [Example 376]
Second: CC(c1ccc(C#N)cc1)n1nccc1-c1cc2c(cc1F)nnn2-c1ccc2cn[nH]c2c1 (stereo not drawn) [Example 382]
The IC50 of the first is higher: over 1 µM for the first, 0.1 to 1 µM for the second.

CC(c1ccc(Cl)c[n+]1[O-])n1nccc1-c1cc(Cl)c2nnn(-c3ccc4cn[nH]c4c3)c2c1 (stereo not drawn) [Example 379] and CC(c1ccc(Cl)cn1)n1nccc1-c1cc2c(cc1F)nnn2-c1ccc2cn[nH]c2c1 (stereo not drawn) [Example 383] fall in the same range of IC50: 0.1 to 1 µM for the first, 0.1 to 1 µM for the second.
